Assay results reported in patent US5420335A, “Parenteral nutrients based on watersoluble glycerol bisacetoacetates” (priority 1993, dated 1995).
Several values for one entry are separate records, joined by “and”; a condition that tells them apart may be missing. Equal values may be shown once.

Key:
Type in all cases: in vivo, rat (male Sprague-Dawley)
[1] = Oral dietary nitrogen (food) intake of intravenously infused rats; settings: Table 7, Example 4; oral only; day 7; individual rat
[2] = Nitrogen balance (difference between intake and urinary output); settings: for Nitrogen Balance, Difference Between Intake and Output: Table 3, Example 2
Procedure: (§1) Water was available ad libitum at all times.
(§2) The vein was then ligated dorsally to the catheter. […] Body weights were measured daily.
(§3) Infusate volume, oral food intake, body weight and urinary volume and total nitrogen were monitored daily for each rat. Infusate volume and food intake were determined by weighing the appropriate container at the start and end of each 24 hr. period. Measurements were recorded between 9 and 10 AM each day. At the end of the 7th day, rats were sacrificed, and blood and liver were harvested. Plasma was separated for measurement of free fatty acids, glucose, and ketone bodies. Liver was weighed and a sample was fixed in buffered formalin for gross histology.
(§4) The data were analyzed for significance by the one-way analysis of variance with repeated measures and comparing the effect of dietary treatment on each day. […] The null hypothesis was concluded invalid if p≤0.05. The analysis of variance was computed on a SAS statistical package.
FIG. 3 illustrates the difference between oral intake and urinary nitrogen output which is termed nitrogen balance. It is representative of nitrogen balance because urinary nitrogen is the major route for body loss of nitrogen.
The experimental compound contains 8% nitrogen. With an infusion of 5.6 grams/day, infused nitrogen would provide approximately 450 mg more than that listed in the data tables. The final balance figures includes this number which is calculated based on the actual daily infusion rate for each rat.

[3] = Daily body weight of intravenously infused rats
Procedure: as §1, §2, §3, §4
(§5) This compound has an estimated energy density of 4.86 kcal/gram based on thermodynamic data from similar compounds.

[4] = Liver weight after 7 days of infusion; settings: for Liver/100 GM: as percentage of body weight
Procedure: as §3
The data were analyzed for significance by the one-way analysis of variance with repeated measures and comparing the effect of dietary treatment on each day. […] The null hypothesis was concluded invalid if p≤0.05. The analysis of variance was computed on a SAS statistical package. […]

[5] = Oral dietary nitrogen (food) intake of intravenously infused rats; settings: for Dietary Nitrogen Intake: Table 1, Example 2
Procedure: as §1, §2, §3, §4, §5

Compound: OC[C@H]1OC(O)[C@H](O)[C@@H](O)[C@@H]1O (stereo partly drawn) [Glucose, glucose, reference compound]
- Dietary Nitrogen Intake [1]: 421.12 MG N and 414.54 MG N and 355.32 MG N and 32.9 MG N and 401.38 MG N and 473.76 MG N and 407.96 MG N and 500.08 MG N
- nitrogen balance ([2]; Example 2, 7 days): around +100 mg/day
- nitrogen balance ([2]; Example 4, infused nitrogen considered (FIG. 8)): over 200 mg/day
- Nitrogen Balance, Difference Between Intake and Output ([2]; day 1, average of 7 rats): 59 MG N
- Nitrogen Balance, Difference Between Intake and Output ([2]; day 1, individual rat): -52.22 MG N and 72.46 MG N and -54.7 MG N and 31.61 MG N and 33.35 MG N and 204.48 MG N and 181.5 MG N
- Nitrogen Balance, Difference Between Intake and Output ([2]; day 2, average of 7 rats): 156 MG N
- Nitrogen Balance, Difference Between Intake and Output ([2]; day 2, individual rat): 85.19 MG N and 10.96 MG N and 116 MG N and 69.7 MG N and 102.25 MG N and 269.41 MG N and 438.03 MG N
- Nitrogen Balance, Difference Between Intake and Output ([2]; day 3, average of 7 rats): 88 MG N
- Nitrogen Balance, Difference Between Intake and Output ([2]; day 3, individual rat): 92.92 MG N and 23.56 MG N and -40.36 MG N and -62.37 MG N and 104.99 MG N and 102.06 MG N and 394.76 MG N
- Nitrogen Balance, Difference Between Intake and Output ([2]; day 4, average of 7 rats): 193 MG N
- Nitrogen Balance, Difference Between Intake and Output ([2]; day 4, individual rat): 21.88 MG N and 37.92 MG N and 298.24 MG N and 5.39 MG N and 316.2 MG N and 269.11 MG N and 402.28 MG N
- Nitrogen Balance, Difference Between Intake and Output ([2]; day 5, average of 7 rats): 113 MG N
- Nitrogen Balance, Difference Between Intake and Output ([2]; day 5, individual rat): 125.86 MG N and 104.41 MG N and 91.79 MG N and 73.12 MG N and -0.62 MG N and -24.03 MG N and 421.33 MG N
- Nitrogen Balance, Difference Between Intake and Output ([2]; day 6, average of 7 rats): 124 MG N
- Nitrogen Balance, Difference Between Intake and Output ([2]; day 6, individual rat): 3.77 MG N and 39.74 MG N and 16.23 MG N and 206.92 MG N and 170.57 MG N and 41.21 MG N and 392.42 MG N
- Nitrogen Balance, Difference Between Intake and Output ([2]; day 7, average of 7 rats): 137 MG N
- Nitrogen Balance, Difference Between Intake and Output ([2]; day 7, individual rat): 105.77 MG N and 52.38 MG N and -205.13 MG N and 366.51 MG N and 85.9 MG N and 206.76 MG N and 345.19 MG N
- nitrogen balance ([2]; in words, 7 days): positive nitrogen balances
- Daily Body Weight ([3]; Table 4, Example 2, day 0, average of 7 rats): 258 Grams
- Daily Body Weight ([3]; Table 4, Example 2, day 0, individual rat): 244 Grams and 228 Grams and 290 Grams and 250 Grams and 247 Grams and 281 Grams and 269 Grams
- Daily Body Weight ([3]; Table 4, Example 2, day 1, average of 7 rats): 262 Grams
- Daily Body Weight ([3]; Table 4, Example 2, day 1, individual rat): 238 Grams and 217 Grams and 329 Grams and 236 Grams and 244 Grams and 286 Grams and 284 Grams
- Daily Body Weight ([3]; Table 4, Example 2, day 2, average of 7 rats): 257 Grams
- Daily Body Weight ([3]; Table 4, Example 2, day 2, individual rat): 234 Grams and 211 Grams and 298 Grams and 233 Grams and 248 Grams and 293 Grams and 281 Grams
- Daily Body Weight ([3]; Table 4, Example 2, day 3, average of 7 rats): 263 Grams
- Daily Body Weight ([3]; Table 4, Example 2, day 3, individual rat): 229 Grams and 209 Grams and 337 Grams and 231 Grams and 266 Grams and 282 Grams and 286 Grams
- Daily Body Weight ([3]; Table 4, Example 2, day 4, average of 7 rats): 259 Grams
- Daily Body Weight ([3]; Table 4, Example 2, day 4, individual rat): 232 Grams and 207 Grams and 315 Grams and 226 Grams and 246 Grams and 295 Grams and 291 Grams
- Daily Body Weight ([3]; Table 4, Example 2, day 5, average of 7 rats): 251 Grams
- Daily Body Weight ([3]; Table 4, Example 2, day 5, individual rat): 232 Grams and 212 Grams and 278 Grams and 222 Grams and 240 Grams and 279 Grams and 294 Grams
- Daily Body Weight ([3]; Table 4, Example 2, day 6, average of 7 rats): 255 Grams
- Daily Body Weight ([3]; Table 4, Example 2, day 6, individual rat): 257 Grams and 230 Grams and 274 Grams and 220 Grams and 238 Grams and 293 Grams
- Daily Body Weight ([3]; Table 4, Example 2, day 7, average of 7 rats): 249 Grams
- Daily Body Weight ([3]; Table 4, Example 2, day 7, individual rat): 245 Grams and 228 Grams and 251 Grams and 226 Grams and 230 Grams and 268 Grams and 297 Grams
- Daily Body Weight ([3]; Table 10, Example 4, day 0, average of 9 rats): 252 Grams
- Daily Body Weight ([3]; Table 10, Example 4, day 0, individual rat): 254 Grams and 288 Grams and 263 Grams and 251 Grams and 227 Grams and 260 Grams and 249 Grams and 233 Grams and 247 Grams
- Daily Body Weight ([3]; Table 10, Example 4, day 1, average of 9 rats): 249 Grams
- Daily Body Weight ([3]; Table 10, Example 4, day 1, individual rat): 247 Grams and 292 Grams and 256 Grams and 225 Grams and 259 Grams and 241 Grams and 227 Grams and 244 Grams
- Daily Body Weight ([3]; Table 10, Example 4, day 2, average of 9 rats): 252 Grams
- Daily Body Weight ([3]; Table 10, Example 4, day 2, individual rat): 261 Grams and 290 Grams and 267 Grams and 246 Grams and 224 Grams and 259 Grams and 237 Grams and 235 Grams and 245 Grams
- Daily Body Weight ([3]; Table 10, Example 4, day 3, average of 9 rats): 251 Grams
- Daily Body Weight ([3]; Table 10, Example 4, day 3, individual rat): 260 Grams and 292 Grams and 269 Grams and 240 Grams and 227 Grams and 264 Grams and 244 Grams and 234 Grams and 229 Grams
- Daily Body Weight ([3]; Table 10, Example 4, day 4, average of 9 rats): 258 Grams
- Daily Body Weight ([3]; Table 10, Example 4, day 4, individual rat): 263 Grams and 297 Grams and 273 Grams and 239 Grams and 234 Grams and 282 Grams and 248 Grams and 245 Grams
- Daily Body Weight ([3]; Table 10, Example 4, day 5, average of 9 rats): 257 Grams
- Daily Body Weight ([3]; Table 10, Example 4, day 5, individual rat): 268 Grams and 298 Grams and 270 Grams and 237 Grams and 239 Grams and 250 Grams and 241 Grams
- Daily Body Weight ([3]; Table 10, Example 4, day 6, average of 9 rats): 263 Grams
- Daily Body Weight ([3]; Table 10, Example 4, day 6, individual rat): 263 Grams and 302 Grams and 267 Grams and 241 Grams and 259 Grams and 268 Grams and 254 Grams and 245 Grams and 271 Grams
- Daily Body Weight ([3]; Table 10, Example 4, day 7, average of 9 rats): 259 Grams
- Daily Body Weight ([3]; Table 10, Example 4, day 7, individual rat): 264 Grams and 305 Grams and 272 Grams and 237 Grams and 247 Grams and 261 Grams and 249 Grams and 244 Grams and 255 Grams
- Liver/100 GM ([4]; Table 5, Example 2, average of 7 rats): 3.220
- Liver/100 GM ([4]; Table 5, Example 2, individual rat): 2.600 and 3.333 and 3.255 and 4.208 and 3.057 and 3.004 and 3.081
- Liver Wt. ([4]; Table 5, Example 2, end of day 7, average of 7 rats): 7.983 Grams
- Liver Wt. ([4]; Table 5, Example 2, end of day 7, individual rat): 6.37 Grams and 7.6 Grams and 8.17 Grams and 9.51 Grams and 7.03 Grams and 8.05 Grams and 9.15 Grams
- Liver/100 GM ([4]; Table 11, Example 4, average): 3.636
- Liver/100 GM ([4]; Table 11, Example 4, individual rat): 3.116 and 3.748 and 3.4975 and 3.789 and 4.01 and 4.617 and 3.403 and 3.377 and 3.169
- Liver Wt. ([4]; Table 11, Example 4, end of day 7, average): 9.433
- Liver Wt. ([4]; Table 11, Example 4, end of day 7, individual rat): 8.2264 and 11.4311 and 9.5132 and 8.9798 and 9.9056 and 12.0506 and 8.4742 and 8.2387 and 8.0815
- liver weight and percentage liver weight ([4]; in words, end of day 7): similarity between glucose infused and experimental compound infused rats liver
- Dietary Nitrogen Intake ([5]; day 1, individual rat): 111.86 MG N and 164.5 MG N and 486.92 MG N and 269.78 MG N
- Dietary Nitrogen Intake ([5]; day 2, individual rat): 217.14 MG N and 85.54 MG N and 427.7 MG N and 144.76 MG N and 493.5 MG N and 526.4 MG N
- Dietary Nitrogen Intake ([5]; day 3, individual rat): 151.34 MG N and 118.44 MG N and 559.3 MG N and 52.64 MG N and 250.04 MG N and 276.36 MG N and 631.68 MG N
- Dietary Nitrogen Intake ([5]; day 4, individual rat): 131.6 MG N and 118.44 MG N and 572.46 MG N and 98.7 MG N and 394.8 MG N and 414.54 MG N and 526.4 MG N
- Dietary Nitrogen Intake ([5]; day 5, individual rat): 236.88 MG N and 230.3 MG N and 407.96 MG N and 157.92 MG N and 223.72 MG N and 217.14 MG N and 559.3 MG N
- Dietary Nitrogen Intake ([5]; day 6, average of 7 rats): 303 MG N
- Dietary Nitrogen Intake ([5]; day 6, individual rat): 118.44 MG N and 105.28 MG N and 243.46 MG N and 342.16 MG N and 289.52 MG N and 375.06 MG N and 644.84 MG N
- Dietary Nitrogen Intake ([5]; day 7, individual rat): 177.66 MG N and 157.92 MG N and 269.78 MG N and 526.4 MG N and 210.56 MG N and 473.76 MG N and 664.58 MG N
- appetite depression ([5]; in words, Example 4): glucose induced better appetite depression than did the experimental compound
- differences in dietary nitrogen intake among the three groups ([5]; in words, vs saline and other groups, 7 days): no differences in dietary nitrogen intake among the three groups
